Results published in patent US7064139B2, “Method for treating retroviral infections” (Uniroyal Chemical Company, Inc., priority 2001, dated 2006).
In brackets after ≈: the same amount, converted by molar mass.

Legend:
Davis strain CMV = assay: Reduction of CMV-induced cytopathicity in HEL cells; assay type: cell-based, human cytomegalovirus (HCMV); settings: HEL cells; for Antiviral EC50 (ug/ml) Davis strain CMV / EC50: virus-induced cytopathicity after seven days; for Antiviral % Inhibition Davis strain CMV: estimate of percent protection at the concentration in the previous column; for EC50: Human betaherpesvirus 5, 168 h, read-out: Antiviral EC50 (ug/ml) Davis strain CMV
Method: Confluent HEL cells grown in […] microtiter plates were inoculated with CMV at an input of 100 PFU (plaque forming units) per well. After a one to two hour incubation period, residual virus was removed and the infected cells were further incubated with MEM (Minimal Essential Medium) (supplemented with 2% inactivated Fetal Calf Serum (FCS), […], and 0.3% sodium bicarbonate) containing varying concentrations of the test compounds. Antiviral activity was expressed as EC50 (50% effective concentration), or test compound concentration required to reduce virus-induced cytopathicity after seven days by 50% compared to the untreated control.
In some cases, the compounds had considerable cytotoxicity against HEL cells, which made determination of the EC50 difficult. In these cases, an estimate of the percent protection at the compound concentration indicated in the previous columns is given.

HIV-1 (IIIB) = assay: microbe, parasite or virus in culture; assay type: cell-based; settings: for EC50 (ug/ml) HIV-1 / EC50: CEM cells, syncytium formation, day four post infection; for HIV-1 % Protection: protection of CEM cells against virus-induced cytopathicity at the concentration in the previous column; for EC50: Human immunodeficiency virus 1, IIIB, CCRF-CEM, read-out: EC50 (ug/ml) HIV-1
Excerpt: (§1) The cell type used to determine activity of the compounds of the invention herein, i.e., the test compounds, against HIV was human T-lymphoblast (CEM) cells obtained from the American Tissue Cell Culture Collection (Rockville, Md.). HIV-1 (IIIB) was originally obtained from the culture of persistently HIV-1 infected H9 cells and was provided by R. C. Gallo and M. Popovic (National Cancer Institute, National Institutes of Health, Bethesda, Md.). HIV-2 (ROD) was originally obtained from L. M. Montagnier (Pasteur Institute, Paris, France).
(§2) To determine the antiviral activity of the test compounds, CEM cells were suspended at a cell density of approximately 300,000 cells per ml of culture medium and infected with approximately 100 CCID50 (100 CCID50 being the 50% cell culture infective dose) of HIV-1 (IIIB) or HIV-2 (ROD)). Then 100 μl of the infected cell suspensions was added to 200 μl micro titer plate wells containing 100 μl of appropriate serial (5-fold) dilutions of the test compounds. The inhibitory effect of the test compounds on HIV-1 or HIV-2 syncytium formation in CEM cells was examined microscopically on day four post infection.
(§3) In these cases, the percent protection of the cells against virus-induced cytopathicity by the test compounds at the indicated compound concentration in the previous column is given.

HIV-2 (ROD) = assay: Inhibition of HIV-2 syncytium formation in CEM cells; assay type: cell-based; settings: for EC50 (ug/ml) HIV-2 / EC50: CEM cells, syncytium formation, day four post infection; for HIV-2 % Protection: protection of CEM cells against virus-induced cytopathicity at the concentration in the previous column; for EC50: Human immunodeficiency virus 2, CCRF-CEM, read-out: EC50 (ug/ml) HIV-2
Excerpt: as §1, §2, §3

SMILES | Antiviral EC50 (ug/ml) Davis strain CMV (Davis strain CMV) [µg/mL] | EC50 (ug/ml) HIV-1 (HIV-1 (IIIB)) | EC50 (ug/ml) HIV-2 (HIV-2 (ROD)) | EC50 (Davis strain CMV) [µg/mL] | EC50 (HIV-1 (IIIB)) [µg/mL] | EC50 (HIV-2 (ROD)) [µg/mL] | Antiviral % Inhibition Davis strain CMV (Davis strain CMV) [%] | HIV-1 % Protection (HIV-1 (IIIB)) [%] | HIV-2 % Protection (HIV-2 (ROD)) [%]
O=S(=O)(Cc1ccc(-c2ccccc2)cc1)c1cccc[n+]1[O-] [Compound 54] | 5.0 | ≧4 ug/ml | 4.0 µg/mL (≈ 12.3 µM) |  |  |  |  | 37.5 | 
COc1ccc(C(c2ccccc2)S(=O)(=O)c2cccc[n+]2[O-])cc1OC (centres unmarked) [Compound 61] | 14.0 | >4 µg/mL | >4.0 µg/mL |  |  |  |  | 0.0 | 6.0
O=[N+]([O-])c1cc(CS(=O)(=O)c2cccc[n+]2[O-])cc([N+](=O)[O-])c1 [Compound 65] | 5.0 | 2.80 µg/mL (≈ 8.25 µM) | 3.5 µg/mL (≈ 10.3 µM) |  |  |  |  |  | 
Cc1ccc(C)c(C[S+]([O-])c2c(C)ccc[n+]2[O-])c1 (centres unmarked) [Compound 70] | 11.0 | 12.00 µg/mL (≈ 43.6 µM) | ≧20 ug/ml |  |  |  |  |  | 37.5
Cc1ccc(C)c(C(C)S(=O)(=O)c2c(C)ccc[n+]2[O-])c1 (centres unmarked) [Compound 71, 2-[1-(2,5-Dimethylphenyl)ethylsulfonyl]-3-methylpyridine N-oxide] |  |  |  | 3.2 (≈ 10.5 µM) | 0.05 (≈ 0.164 µM) | > 20 |  |  | 0.0
Cc1ccc(C)c(CS(=O)(=O)c2cccc(C)[n+]2[O-])c1 [Compound 72] | >50 | 4.00 µg/mL (≈ 13.7 µM) | >100.0 µg/mL |  |  |  | 0.0 |  | 0.0
Cc1ccc(C)c(C(Cl)S(=O)(=O)c2cccc(C)[n+]2[O-])c1 (centres unmarked) [Compound 73] | >20 | 2.80 µg/mL (≈ 8.59 µM) | >100.0 µg/mL |  |  |  | 40.0 |  | 0.0
Cc1ccc(C)c(C(Cl)S(=O)(=O)c2cc(C)cc[n+]2[O-])c1 (centres unmarked) [Compound 74, 2-[(2,5-dimethylphenyl)chloromethylsulfonyl]-4-methylpyridine-1-oxide] |  |  |  | 34.5 (≈ 106 µM) | 0.42 (≈ 1.29 µM) | > 100 |  |  | 0.0
Cc1ccc(C)c(C(C)S(=O)(=O)c2cccc(Cl)[n+]2[O-])c1 (centres unmarked) [Compound 76] | 9.1 | 0.90 µg/mL (≈ 2.76 µM) | 2.4 µg/mL (≈ 7.37 µM) |  |  |  |  |  | 
Cc1ccc(C)c(CS(=O)(=O)c2cccc(Cl)[n+]2[O-])c1 [Compound 77] | 11.0 | 0.70 µg/mL (≈ 2.25 µM) | >0.8 µg/mL |  |  |  |  |  | 0.0
CCC(c1cc(C)ccc1C)S(=O)(=O)c1c(C)ccc[n+]1[O-] (centres unmarked) [Compound 79, 2-[[1-(2,5-dimethylphenyl)propyl]sulfonyl]-3-methylpyridine-1-oxide] |  |  |  | 0.8 (≈ 2.5 µM) | 1.4 (≈ 4.38 µM) | ≥ 20 |  |  | 37.5
Cc1ccc(C)c(C(C)S(=O)(=O)c2cc(C)cc(C)[n+]2[O-])c1 (centres unmarked) [Compound 81] | 8.6 | ≧20 ug/ml | >20.0 µg/mL |  |  |  |  | 37.5 | 0.0
Cc1ccc(CS(=O)(=O)c2c(C)ccc[n+]2[O-])c(C)c1 [Compound 83] | 12.0 | 6.00 µg/mL (≈ 20.6 µM) | ≧20 ug/ml |  |  |  |  |  | 37.5

Second part, led by results:

Antiviral EC50 (ug/ml) Davis strain CMV (Davis strain CMV) [µg/mL] | EC50 (ug/ml) HIV-1 (HIV-1 (IIIB)) | EC50 (ug/ml) HIV-2 (HIV-2 (ROD)) | EC50 (Davis strain CMV) [µg/mL] | EC50 (HIV-1 (IIIB)) [µg/mL] | EC50 (HIV-2 (ROD)) [µg/mL] | SMILES | Antiviral % Inhibition Davis strain CMV (Davis strain CMV) [%] | HIV-1 % Protection (HIV-1 (IIIB)) [%] | HIV-2 % Protection (HIV-2 (ROD)) [%]
12.0 | 6.00 µg/mL (≈ 21.6 µM) | 6.5 µg/mL (≈ 23.4 µM) |  |  |  | Cc1ccc(CS(=O)(=O)c2cccc[n+]2[O-])c(C)c1 [Compound 52] |  |  | 
>5 | 2.33 µg/mL (≈ 7.78 µM) | 4.1 µg/mL (≈ 13.7 µM) |  |  |  | O=S(=O)(Cc1ccc2ccccc2c1)c1cccc[n+]1[O-] [Compound 53] | 20.0 |  | 
3.2 | ≧4 ug/ml | 2.6 µg/mL (≈ 8.51 µM) |  |  |  | CC(C)Cc1ccc(CS(=O)(=O)c2cccc[n+]2[O-])cc1 [Compound 55] |  | 37.5 | 
>5 | 5.30 µg/mL (≈ 15.5 µM) | 4.7 µg/mL (≈ 13.8 µM) |  |  |  | O=S(=O)(Cc1ccccc1Oc1ccccc1)c1cccc[n+]1[O-] [Compound 56] | 20.0 |  | 
5.0 | 3.40 µg/mL (≈ 11.7 µM) | 2.6 µg/mL (≈ 8.92 µM) |  |  |  | CC(C)c1ccc(CS(=O)(=O)c2cccc[n+]2[O-])cc1 [Compound 58] |  |  | 
10.0 | 5.50 µg/mL (≈ 19.8 µM) | 5.0 µg/mL (≈ 18 µM) |  |  |  | CCc1ccc(CS(=O)(=O)c2cccc[n+]2[O-])cc1 [Compound 59] |  |  | 
>5 | 1.90 µg/mL (≈ 6.16 µM) | 5.0 µg/mL (≈ 16.2 µM) |  |  |  | Cc1ccc([N+](=O)[O-])c(CS(=O)(=O)c2cccc[n+]2[O-])c1 [Compound 62] | 20.0 |  | 
3.7 | 2.30 µg/mL (≈ 5.58 µM) | 2.5 µg/mL (≈ 6.06 µM) |  |  |  | CC(C)c1cc(CS(=O)(=O)c2cccc[n+]2[O-])c(C(C)C)cc1Br [Compound 63] |  |  | 
 |  |  | > 5 | 1.5 (≈ 4.56 µM) | 1.9 (≈ 5.78 µM) | O=[N+]([O-])c1cc(CS(=O)(=O)c2cccc[n+]2[O-])ccc1Cl [Compound 64, 2-[[(4-chloro-3-nitrophenyl)methyl]sulfonyl]-pyridine-1-oxide] | 10.0 |  | 
5.0 | 3.10 µg/mL (≈ 10.1 µM) | 2.5 µg/mL (≈ 8.11 µM) |  |  |  | Cc1cc(CS(=O)(=O)c2cccc[n+]2[O-])ccc1[N+](=O)[O-] [Compound 66] |  |  | 
>50 | 2.30 µg/mL (≈ 7.46 µM) | 2.4 µg/mL (≈ 7.78 µM) |  |  |  | Cc1ccc(CS(=O)(=O)c2cccc[n+]2[O-])cc1[N+](=O)[O-] [Compound 67] | 20.0 |  | 
>5 | 2.90 µg/mL (≈ 8.82 µM) | 2.9 µg/mL (≈ 8.82 µM) |  |  |  | O=[N+]([O-])c1ccc(CS(=O)(=O)c2cccc[n+]2[O-])c(Cl)c1 [Compound 69] | 20.0 |  | 
>20 | 15.00 µg/mL (≈ 57 µM) | >20.0 µg/mL |  |  |  | Cc1ccc[n+]([O-])c1S(=O)(=O)Cc1ccccc1 [Compound 80] | 0.0 |  | 0.0
>5 | 9.30 µg/mL (≈ 33.5 µM) | ≧20 ug/ml |  |  |  | Cc1ccccc1CS(=O)(=O)c1c(C)ccc[n+]1[O-] [Compound 82] | 0.0 |  | 37.5
